Data reported in US9340577B2, “HLA binding motifs and peptides and their uses” (priority 1992, dated 2016).
pIC50: −log10 of the molar value. No end group written: not given here.

Columns and labels:
Assay in all cases: biochemical
Assay type in all cases: binding
HLA-A*0201 (HLA-A2.1) = HLA-A*0201 (HLA-A2.1) (Homo sapiens, UniProt P04439, D140Y/D185E/D98H/E176V/E277Q/G131W/G231S/I119V/I121R/I166T/I218V/L300P/L318F/N151K/N90K/P208A/P217A/Q86G/Q94H/R138H/R169H/T345S)
A*0202 = A*0202 (Homo sapiens, UniProt P04439, D140Y/D185E/D98H/E176V/E277Q/G131W/G231S/I119L/I121R/I166T/I218V/L180W/L300P/L318F/N151K/N90K/P208A/P217A/Q67R/Q86G/Q94H/R138H/R169H/T345S)
A*0203 = A*0203 (Homo sapiens, UniProt P04439, A173T/D140Y/D185E/D98H/E277Q/G131W/G231S/I119V/I121R/I166T/I218V/L180W/L300P/L318F/N151K/N90K/P208A/P217A/Q86G/Q94H/R138H/R169H/T345S)
A*0206 = A*0206 (Homo sapiens, UniProt P04439, D140Y/D185E/D98H/E176V/E277Q/F33Y/G131W/G231S/I119V/I121R/I166T/I218V/L300P/L318F/N151K/N90K/P208A/P217A/Q86G/Q94H/R138H/R169H/T345S)
A*6802 = A*6802 (Homo sapiens, UniProt P04439, A269V/D140Y/D185E/E176V/E277Q/E87N/F33Y/G231S/I121R/I166T/I218V/L180W/L300P/L318F/N151K/P208A/P217A/Q86R/R138H/R169H/S129P/T345S/V36M)

Sequence | pIC50 (HLA-A*0201 (HLA-A2.1)) | pIC50 (A*0202) | pIC50 (A*0203) | pIC50 (A*0206) | pIC50 (A*6802)
FLSGCVISYV [Peptide 1578.32] | 7.37 | 8.57 | 8.13 | 7.17 | 6.99
FLSHVKIPV [Peptide 1578.55] | 7.39 | 8.40 | 8.01 | 7.04 | 7.22
FLSYFKLFL [Peptide 1578.37] | 7.52 | 8.68 | 8.07 | 7.35 | 5.32
FLVAFKQFL [Peptide 1578.42] | 7.26 | 9.37 | 8.33 | 7.09 | 5.85
FQFQNPFPL [Peptide 1578.40] | 8.08 | 9.12 | 8.46 | 8.20 | 5.50
FQGSVISFV [Peptide 1578.38] | 7.82 | 8.74 | 8.74 | 7.89 | 6.25
FQKYKTLFV [Peptide 1578.54] | 5.94 | 6.09 | 7.52 | 6.38 | < 4.70
FQYAQLADV [Peptide 1578.36] | 7.38 | 8.43 | 7.92 | 7.49 | 4.77
GLFQQSTQEL [Peptide 9013.0176] | 5.87 | 8.21 | 7.32 | < 4.70 | < 4.70
GLFRVYPEL [Peptide 9013.0039] | 7.37 | 7.89 | 6.64 | 5.85 | < 4.70
GLNRTTVTV [Peptide 9013.0066] | 6.96 | 8.00 | 8.42 | 5.33 | < 4.70
GLQQATPGPA [Peptide 9013.0143] | 5.31 | 6.66 | 8.41 | < 4.70 | < 4.70
GLSAGATVGV [Peptide 9013.0250] | 7.01 | 8.54 | 8.55 | 5.96 | 5.94
GLTVGIMIGVL [Peptide 9013.0343] | 5.30 | 6.04 | 6.54 | 4.94 | 5.58
GMIDDVTAI [Peptide 1578.44] | 7.64 | 8.28 | 8.14 | 7.43 | < 4.70
GMIDDVTPI [Peptide 1578.24] | 7.60 | 9.70 | 9.20 | 7.62 | < 4.70
GTQQATPGPV [Peptide 9013.0142] | < 4.70 | < 4.70 | 7.44 | < 4.70 | < 4.70
HLQVLFIAKI [Peptide 9013.0244] | 5.23 | 6.10 | 7.54 | 6.92 | < 4.70
IIQNDTGFYV [Peptide 9013.0146] | 6.81 | 7.60 | 6.26 | 6.70 | 5.59
IIYPNASLLV [Peptide 9013.0144] | 6.33 | 8.00 | 8.33 | 7.15 | 6.08
IIYPNASLV [Peptide 9013.0029] | 6.64 | 7.62 | 8.40 | 6.82 | 6.39
ILYPNASLLI [Peptide 9013.0145] | 7.06 | 8.89 | 8.55 | 6.60 | 5.51
IQGAVISFV [Peptide 1578.13] | 7.35 | 7.92 | 7.89 | 7.46 | 5.31
IQNDTGFYTV [Peptide 9013.0149] | 6.22 | 7.70 | 7.51 | 7.20 | 5.05
IQNDTGFYV [Peptide 9013.0035] | 6.83 | 7.80 | 7.43 | 7.49 | 5.35
IVNTTYLWWV [Peptide 9013.0196] | 5.23 | 5.84 | 6.41 | 7.04 | 7.15
KLMSQLLNI [Peptide 1578.29] | 7.46 | 8.80 | 7.92 | 7.25 | < 4.70

Sequence | pIC50 (HLA-A*0201 (HLA-A2.1)) | pIC50 (A*0202) | pIC50 (A*0203) | pIC50 (A*0206) | pIC50 (A*6802)
KLTFLCVTL [Peptide 1516.14] | 7.72 | 8.52 | 7.39 | 6.91 | < 4.70
KTITVSAEV [Peptide 9013.0083] | 6.01 | 7.38 | 8.59 | 7.10 | 7.82
LIQPFILYA [Peptide 1578.07] | 6.91 | 7.15 | 7.34 | 7.15 | 5.06
LLFWNPPTTA [Peptide 9013.0123] | 7.60 | 8.89 | 8.80 | 5.93 | 5.67
LLIESTPFNVA [Peptide 9013.0268] | 6.92 | 8.48 | 8.46 | 6.97 | < 4.70
LLLSNDNRTL [Peptide 9013.0205] | 5.09 | 6.52 | 5.38 | < 4.70 | < 4.70
LLLSNGNRTL [Peptide 9013.0227] | 5.81 | 6.80 | 6.39 | 5.40 | < 4.70
LLLTASLLV [Peptide 9013.0002] | 7.55 | 5.87 | 6.53 | 7.10 | < 4.70
LLTFWNPPTV [Peptide 9013.0120] | 6.77 | 8.00 | 8.49 | 6.00 | 6.22
LQGSVICFV [Peptide 1578.06] | 7.64 | 7.48 | 7.68 | 7.28 | 5.45
LQLSNDNRTLV [Peptide 9013.0307] | 4.89 | 5.86 | 5.28 | 7.00 | < 4.70
LTFWNPPTTV [Peptide 9013.0122] | 6.68 | 7.42 | 8.72 | 6.47 | 7.64
MAFEYALLA [Peptide 1578.09] | 6.65 | 7.28 | 7.13 | 7.00 | 7.54
MTRNPPVPV [Peptide 1539.02] | 5.04 | 5.94 | 7.46 | < 4.70 | 6.93
MTSNPAIPV [Peptide 1539.03] | 5.83 | 6.02 | 7.17 | 6.04 | 8.70
NLAEGKEVL [Peptide 9013.0016] | 5.42 | 7.85 | 6.53 | < 4.70 | < 4.70
NLNLSCHAV [Peptide 9013.0054] | 6.20 | 7.82 | 7.41 | 5.15 | 5.66
NVAEGKEVV [Peptide 9013.0015] | < 4.70 | 5.88 | 5.32 | < 4.70 | 6.45
PLYSWRINGI [Peptide 9013.0236] | < 4.70 | 6.46 | 7.85 | < 4.70 | < 4.70
PQYSWRINGV [Peptide 9013.0235] | < 4.70 | 5.88 | 7.60 | < 4.70 | < 4.70
QITPLCVTL [Peptide 1516.13] | 6.01 | 6.91 | 5.36 | 6.20 | 5.54
QLHTQELFI [Peptide 9013.0079] | 6.08 | 7.60 | 6.58 | 4.93 | 4.72
QLHTQVLFIA [Peptide 9013.0242] | 5.40 | 6.49 | 6.79 | < 4.70 | < 4.70
QLSNGNRTL [Peptide 9013.0050] | 4.79 | 7.41 | 7.37 | < 4.70 | 5.06
QLSNGNRTLTL [Peptide 9013.0292] | < 4.70 | 7.10 | 6.17 | < 4.70 | < 4.70
QLSNGNRTLV [Peptide 9013.0229] | < 4.70 | 7.18 | 6.84 | < 4.70 | < 4.70
